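Assay format: 96-well plates, 48-hour exposure. GI50 marks 50% less growth.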 The source made the active and inactive calls. Rule as the data show it: active = GI50 up to about 1.1 µM and inactive = higher.
Assays:
Assay in all cases: growth of human tumour cells (NCI), 48 h
UACC-62 = tested on: UACC-62
MOLT-4 = tested on: MOLT-4
DU-145 = tested on: DU-145
UO-31 = tested on: UO-31
SNB-75 = tested on: SNB-75
A549 = tested on: A549
786-0 = tested on: 786-0
T47D = tested on: T47D
PC-3 = tested on: PC-3
OVCAR-3 = tested on: OVCAR-3
NCI-H460 = tested on: NCI-H460
CCRF-CEM = tested on: CCRF-CEM
ACHN = tested on: ACHN
HT-29 = tested on: HT-29
SK-MEL-5 = tested on: SK-MEL-5
TK-10 = tested on: TK-10
K562 = tested on: K562
UACC-257 = tested on: UACC-257
MCF7 = tested on: MCF7
Malme-3M = tested on: Malme-3M

## CCN(CC)c1ccc(C2SCC(=O)N2c2ccc(NC(=O)c3ccc(N4C(=O)CSC4c4ccc(N(CC)CC)cc4)cc3)cc2)cc1 (stereo not given)
UACC-62
  GI50: > 100 µM (inactive)
MOLT-4
  GI50: 29.7 µM (inactive)
DU-145
  GI50: > 100 µM (inactive)
UO-31
  GI50: > 100 µM (inactive)
SNB-75
  GI50: > 100 µM (inactive)
A549
  GI50: > 100 µM (inactive)
786-0
  GI50: > 100 µM (inactive)
T47D
  GI50: 26.2 µM (inactive)
PC-3
  GI50: > 100 µM (inactive)
OVCAR-3
  GI50: 71.4 µM (inactive)
NCI-H460
  GI50: > 100 µM (inactive)
CCRF-CEM
  GI50: 35.5 µM (inactive)
ACHN
  GI50: > 100 µM (inactive)
HT-29
  GI50: 75 µM (inactive)
SK-MEL-5
  GI50: > 100 µM (inactive)
TK-10
  GI50: > 100 µM (inactive)
K562
  GI50: 47.6 µM (inactive)
UACC-257
  GI50: > 100 µM (inactive)
MCF7
  GI50: 79.4 µM (inactive)
Malme-3M
  GI50: > 100 µM (inactive)

## CCC1(c2ccc(N)cc2)CCC(=O)NC1=O (stereo not given) [AMINOGLUTETHIMIDE]
UACC-62
  GI50: 1820 µM (inactive)
MOLT-4
  GI50: 1440 µM (inactive)
DU-145
  GI50: 3030 µM (inactive)
UO-31
  GI50: 1930 µM (inactive)
SNB-75
  GI50: 1910 µM (inactive)
A549
  GI50: 2880 µM (inactive)
786-0
  GI50: 3420 µM (inactive)
T47D
  GI50: 2070 µM (inactive)
PC-3
  GI50: 1170 µM (inactive)
OVCAR-3
  GI50: 1810 µM (inactive)
NCI-H460
  GI50: 2580 µM (inactive)
CCRF-CEM
  GI50: 665 µM (inactive)
ACHN
  GI50: 2490 µM (inactive)
HT-29
  GI50: 2960 µM (inactive)
SK-MEL-5
  GI50: 2090 µM (inactive)
TK-10
  GI50: 2170 µM (inactive)
K562
  GI50: 2080 µM (inactive)
UACC-257
  GI50: 2650 µM (inactive)
MCF7
  GI50: 3010 µM (inactive)
Malme-3M
  GI50: 2960 µM (inactive)

## Cn1c(=O)sc2cc(C(=S)N3CCOCC3)ccc21
UACC-62
  GI50: > 100 µM (inactive)
MOLT-4
  GI50: 39.9 µM (inactive)
DU-145
  GI50: > 100 µM (inactive)
UO-31
  GI50: 60 µM (inactive)
SNB-75
  GI50: > 34 µM (inactive)
A549
  GI50: > 100 µM (inactive)
786-0
  GI50: > 100 µM (inactive)
T47D
  GI50: > 100 µM (inactive)
PC-3
  GI50: > 100 µM (inactive)
OVCAR-3
  GI50: > 100 µM (inactive)
NCI-H460
  GI50: > 100 µM (inactive)
CCRF-CEM
  GI50: 28.6 µM (inactive)
ACHN
  GI50: > 100 µM (inactive)
HT-29
  GI50: > 79.3 µM (inactive)
SK-MEL-5
  GI50: > 100 µM (inactive)
TK-10
  GI50: > 100 µM (inactive)
K562
  GI50: 41.2 µM (inactive)
UACC-257
  GI50: > 100 µM (inactive)
MCF7
  GI50: > 100 µM (inactive)
Malme-3M
  GI50: 3.48 µM (inactive)

## NC(=O)N/N=C1\CC2C3CC4C2C4C13 (stereo not given)
UACC-62
  GI50: > 100 µM (inactive)
MOLT-4
  GI50: > 100 µM (inactive)
DU-145
  GI50: > 100 µM (inactive)
UO-31
  GI50: > 100 µM (inactive)
SNB-75
  GI50: > 100 µM (inactive)
A549
  GI50: > 100 µM (inactive)
786-0
  GI50: > 100 µM (inactive)
T47D
  GI50: > 100 µM (inactive)
PC-3
  GI50: > 100 µM (inactive)
OVCAR-3
  GI50: > 100 µM (inactive)
NCI-H460
  GI50: > 100 µM (inactive)
CCRF-CEM
  GI50: > 100 µM (inactive)
ACHN
  GI50: > 100 µM (inactive)
HT-29
  GI50: > 100 µM (inactive)
SK-MEL-5
  GI50: > 100 µM (inactive)
TK-10
  GI50: > 100 µM (inactive)
K562
  GI50: > 100 µM (inactive)
UACC-257
  GI50: > 100 µM (inactive)
MCF7
  GI50: > 100 µM (inactive)
Malme-3M
  GI50: > 100 µM (inactive)

## Cc1cc(C)c2c(n1)S(=O)(=O)N(CCCN1CCN(c3cccc(C(F)(F)F)c3)CC1)C(C(=O)c1ccc(Cl)cc1)=C2O
UACC-62
  GI50: 4.74 µM (inactive)
MOLT-4
  GI50: 0.418 µM (active)
DU-145
  GI50: 4.67 µM (inactive)
UO-31
  GI50: 1.33 µM (inactive)
SNB-75
  GI50: 2.81 µM (inactive)
A549
  GI50: 2.74 µM (inactive)
786-0
  GI50: 2.47 µM (inactive)
T47D
  GI50: 3.98 µM (inactive)
PC-3
  GI50: 2.88 µM (inactive)
OVCAR-3
  GI50: 3.57 µM (inactive)
NCI-H460
  GI50: 1.79 µM (inactive)
CCRF-CEM
  GI50: 8.15 µM (inactive)
ACHN
  GI50: 3.48 µM (inactive)
HT-29
  GI50: 4.03 µM (inactive)
SK-MEL-5
  GI50: 2.22 µM (inactive)
TK-10
  GI50: 3.01 µM (inactive)
K562
  GI50: 2.2 µM (inactive)
UACC-257
  GI50: 2.31 µM (inactive)
MCF7
  GI50: 3.26 µM (inactive)
Malme-3M
  GI50: 3.27 µM (inactive)

## CN(C)CCN1C(=O)c2ccccc2C1(O)c1ccc(Cl)cc1 (stereo not given)
UACC-62
  GI50: 32.7 µM (inactive)
MOLT-4
  GI50: 39.3 µM (inactive)
DU-145
  GI50: > 100 µM (inactive)
UO-31
  GI50: 24.3 µM (inactive)
SNB-75
  GI50: 83.4 µM (inactive)
A549
  GI50: > 100 µM (inactive)
786-0
  GI50: > 100 µM (inactive)
T47D
  GI50: 94.8 µM (inactive)
PC-3
  GI50: 50.1 µM (inactive)
OVCAR-3
  GI50: > 100 µM (inactive)
NCI-H460
  GI50: 93.1 µM (inactive)
CCRF-CEM
  GI50: 32.4 µM (inactive)
ACHN
  GI50: > 100 µM (inactive)
HT-29
  GI50: 42.7 µM (inactive)
SK-MEL-5
  GI50: 24 µM (inactive)
TK-10
  GI50: > 100 µM (inactive)
K562
  GI50: > 100 µM (inactive)
UACC-257
  GI50: 24.8 µM (inactive)
MCF7
  GI50: > 100 µM (inactive)
Malme-3M
  GI50: 28.6 µM (inactive)

## Cc1ccc2c(c1C)CC1(Cc3c(ccc4c3CCC4)C1=O)C2=O (stereo not given)
UACC-62
  GI50: > 100 µM (inactive)
MOLT-4
  GI50: > 100 µM (inactive)
DU-145
  GI50: > 100 µM (inactive)
UO-31
  GI50: > 100 µM (inactive)
SNB-75
  GI50: 51.6 µM (inactive)
A549
  GI50: > 100 µM (inactive)
786-0
  GI50: > 100 µM (inactive)
T47D
  GI50: > 100 µM (inactive)
PC-3
  GI50: 62.2 µM (inactive)
OVCAR-3
  GI50: 65.9 µM (inactive)
NCI-H460
  GI50: > 100 µM (inactive)
CCRF-CEM
  GI50: > 100 µM (inactive)
ACHN
  GI50: > 100 µM (inactive)
HT-29
  GI50: > 100 µM (inactive)
SK-MEL-5
  GI50: > 100 µM (inactive)
TK-10
  GI50: > 100 µM (inactive)
K562
  GI50: > 100 µM (inactive)
UACC-257
  GI50: > 100 µM (inactive)
MCF7
  GI50: 21.9 µM (inactive)
Malme-3M
  GI50: > 100 µM (inactive)

Reference: ChEMBL document CHEMBL1201862, “PubChem BioAssay data set” (2004)
